Data: publication PMC10625055, “A novel Bruton's tyrosine kinase inhibitor JDB175 shows potent efficacy to suppress central nervous system lymphoma” (MedComm, 2023)

Biological target: Bruton's tyrosine kinase (BTK) (Homo sapiens, UniProt Q06187)
Assay: radiometric kinase assay, recombinant human kinase
Assay type: biochemical

Sequence of Bruton's tyrosine kinase (BTK) (Q06187 2-659): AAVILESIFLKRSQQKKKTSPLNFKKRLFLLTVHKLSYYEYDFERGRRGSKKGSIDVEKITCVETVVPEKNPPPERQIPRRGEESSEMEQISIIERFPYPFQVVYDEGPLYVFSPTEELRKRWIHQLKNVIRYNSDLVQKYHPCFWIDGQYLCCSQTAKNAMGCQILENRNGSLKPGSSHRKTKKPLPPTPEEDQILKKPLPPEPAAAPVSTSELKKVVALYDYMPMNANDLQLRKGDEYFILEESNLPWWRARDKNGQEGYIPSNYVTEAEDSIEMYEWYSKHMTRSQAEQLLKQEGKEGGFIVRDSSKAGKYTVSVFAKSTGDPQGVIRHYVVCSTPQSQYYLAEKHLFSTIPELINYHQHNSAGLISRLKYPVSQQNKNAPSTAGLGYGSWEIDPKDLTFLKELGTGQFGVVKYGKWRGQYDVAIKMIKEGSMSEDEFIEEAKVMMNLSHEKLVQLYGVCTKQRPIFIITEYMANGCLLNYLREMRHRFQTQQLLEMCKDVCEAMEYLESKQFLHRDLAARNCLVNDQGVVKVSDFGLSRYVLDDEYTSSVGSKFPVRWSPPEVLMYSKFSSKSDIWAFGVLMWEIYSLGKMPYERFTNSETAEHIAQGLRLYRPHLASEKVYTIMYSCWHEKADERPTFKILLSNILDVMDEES

IC50: 2.1 nM
Compound: C=CC(=O)N1CCC[C@@H](c2nn(-c3ccc(Oc4cccc(F)c4F)cc3)c3cncc(F)c23)C1 [JDB175]
